According to patent US4320141A, “Antitumor agent” (priority 1977, dated 1982):
Where two headings read alike, the source gives them in different places.

What was measured:
[1] = in vivo; cited from earlier work
[2] = Acute toxicity in mice (LD50); assay type: in vivo; details: for LD50: mouse, in vivo
Source text: Acute toxicity in mice of α-tocopherol vitamin A acid ester which is the active ingredient of the antitumor agent of this invention is particularly low as shown below, even when any route of administration such as oral route, intraperitoneal route or intravenous injection is applied.

[3] = system: experimental tumor developed on epithelial cells; details: prophylaxis or therapy of experimental tumor; cited from earlier work
tumor [4] = test: Prophylactic effect on development of tumor (DMBA-initiated, croton oil-promoted, coated on depilated back); assay type: in vivo, ICR mice; details: groups of 10 mice, 4 months
Source text: To groups of 10 ICR mice, was applied 0.2% acetone solution of a cancerigenic agent, dimethylbenzanthracene (abbreviated hereinafter as DMBA) by coating said solution on the depilated back of the mice once a day for two weeks. From one week after the final administration of DMBA, an acetone solution of. 0.06% croton oil and a lotion containing an acetone solution of 0.06% croton oil and the active ingredient according to the present invention were coated successively on the back once a day for 4 months.
The lotion used above was prepared according to the following process:
A desired amount of α-tocopherol vitamin A acid ester was dissolved in 10 g of ethyl alcohol together with 0.5 g of […] sorbitan monolaurate and 6 g of glycerin and purified water were added thereto to make up the total 100 g. The solution thus obtained was stirred thoroughly to give lotion.

tumor [5] = test: Therapeutic effect on tumor (DMBA-induced, hairless mice); assay type: in vivo; details: three weeks, counted on each animal
Experimental: On the back of hairless mice was coated 0.2% DMBA dissolved in olive oil with a brush three times a week for 2 months. After confirmation of development of tumor, test zone comprising groups of five mice was arranged indiscriminately. To these animals was administered α-tocopherol vitamin A acid ester either topically or orally and change of tumor was observed.
the back of animal twice a day with brush.

[6] = 0.3% lotion, percutaneous, without croton oil
[7] = croton oil + 0.02% lotion, percutaneous, croton oil alone 10
[8] = croton oil + 0.3% lotion, percutaneous, croton oil alone 10
[9] = intravenous, read-out: LD50, intravenous injection
[10] = ip, intraperitoneal, read-out: LD50, intraperitoneal administration
[11] = oral, read-out: LD50, oral administration
[12] = 0.01% lotion, topical twice a day, control 5
[13] = 0.01% lotion, topical twice a day, control 8
[14] = 0.01% lotion, topical twice a day, control 17
[15] = 0.05% lotion, topical twice a day, control 5
[16] = 0.05% lotion, topical twice a day, control 8
[17] = 0.05% lotion, topical twice a day, control 17

## CC1=C(/C=C/C(C)=C/C=C/C(C)=C/C(=O)O)C(C)(C)CCC1 [Vitamin A acid, vitamin A acid, reference compound]
[1]
  Toxicity (in words): quite strongly toxic
[2]; intraperitoneal
  LD50, intraperitoneal administration: 150 mg/kg
[2]; intravenous
  LD50, intravenous injection: 92 mg/kg
[2]; oral
  LD50, oral administration: 780 mg/kg
[3]
  Antitumor activity (in words): effective for prophylaxis of development or therapy of experimental tumor developed on epithelial cells

## CC1=C(/C=C/C(C)=C/C=C/C(C)=C\C(=O)Oc2c(C)c(C)c3c(c2C)CCC(C)(CCCC(C)CCCC(C)CCCC(C)C)O3)C(C)(C)CCC1 (stereo not drawn) [α-tocopherol-13-cis-vitamin A acid ester]
Tumor [4]; [6]
  Number of animals in which tumor was developed: 0
Tumor [4]; [7]
  Number of animals in which tumor was developed: 4
Tumor [4]; [8]
  Number of animals in which tumor was developed: 2
[2]; [9]
  LD50: > 1000 mg/kg
[2]; [10]
  LD50: > 10000 mg/kg
[2]; [11]
  LD50: > 10000 mg/kg
Tumor [5]; [12]
  Average number of tumor, smaller than 2mm: 8
Tumor [5]; [13]
  Average number of tumor, 5-2mm: 3
Tumor [5]; [14]
  Average number of tumor, larger than 5mm: 4
Tumor [5]; [15]
  Average number of tumor, smaller than 2mm: 4
Tumor [5]; [16]
  Average number of tumor, 5-2mm: 6
Tumor [5]; [17]
  Average number of tumor, larger than 5mm: 2

## CC1=C(/C=C/C(C)=C/C=C/C(C)=C/C(=O)Oc2c(C)c(C)c3c(c2C)CCC(C)(CCCC(C)CCCC(C)CCCC(C)C)O3)C(C)(C)CCC1 (stereo not drawn) [α-tocopherol-trans-vitamin A acid ester]
Tumor [4]; [6]
  Number of animals in which tumor was developed: 0
Tumor [4]; [7]
  Number of animals in which tumor was developed: 5
Tumor [4]; croton oil + 200mg/day, oral, croton oil alone 10
  Number of animals in which tumor was developed: 3
Tumor [4]; [8]
  Number of animals in which tumor was developed: 2
[2]; [9]
  LD50: > 1000 mg/kg
[2]; [10]
  LD50: > 10000 mg/kg
[2]; [11]
  LD50: > 10000 mg/kg
Tumor [5]; [12]
  Average number of tumor, smaller than 2mm: 8
Tumor [5]; [13]
  Average number of tumor, 5-2mm: 5
Tumor [5]; [14]
  Average number of tumor, larger than 5mm: 7
Tumor [5]; [15]
  Average number of tumor, smaller than 2mm: 13
Tumor [5]; [16]
  Average number of tumor, 5-2mm: 6
Tumor [5]; [17]
  Average number of tumor, larger than 5mm: 1
Tumor [5]; 200mg/kg, oral, control (topical) 5
  Average number of tumor, smaller than 2mm: 10
Tumor [5]; 200mg/kg, oral, control (topical) 8
  Average number of tumor, 5-2mm: 6
Tumor [5]; 200mg/kg, oral, control (topical) 17
  Average number of tumor, larger than 5mm: 4
Tumor [5]; 500mg/kg, oral, control (topical) 5
  Average number of tumor, smaller than 2mm: 6
Tumor [5]; 500mg/kg, oral, control (topical) 8
  Average number of tumor, 5-2mm: 5
Tumor [5]; 500mg/kg, oral, control (topical) 17
  Average number of tumor, larger than 5mm: 2
